Measured values reported in ChEMBL document CHEMBL2073833, “Biliary excretion of glycyrrhizin in rats: kinetic basis for multiplicity in bile canalicular transport of organic anions” (Pharm Res, 1996).

Tests used:
Details in all cases: in vivo
[1] = target: T1, ATP-binding cassette sub-family C member 2 (Rattus norvegicus, UniProt Q63120); assay: TP_TRANSPORTER: inhibition of GR biliary excretion (70.8->23.5 % of dose, DBSP: 3 uM/min/kg iv infusion, GR: 10 mg/kg iv) in EHBR rat; type: functional, organism-based, Bile; parameters: dose 10 mg/kg, route intravenous
[2] = target: T1, ATP-binding cassette sub-family C member 2; assay: TP_TRANSPORTER: inhibition of GR biliary excretion (70.8->23.5 % of dose, DBSP: 3 uM/min/kg iv infusion, GR: 10 mg/kg iv) in SD rat; type: functional, organism-based, Sprague-Dawley, Bile; parameters: dose 10 mg/kg, route intravenous
[3] = target: T1, ATP-binding cassette sub-family C member 2; assay: TP_TRANSPORTER: biliary excretion in EHBR rat; type: functional, organism-based, Bile
[4] = target: T1, ATP-binding cassette sub-family C member 2; assay: TP_TRANSPORTER: biliary excretion in SD rat; type: functional, organism-based, Sprague-Dawley, Bile

T1 sequence (Q63120 whole entry, the tested form may be a part): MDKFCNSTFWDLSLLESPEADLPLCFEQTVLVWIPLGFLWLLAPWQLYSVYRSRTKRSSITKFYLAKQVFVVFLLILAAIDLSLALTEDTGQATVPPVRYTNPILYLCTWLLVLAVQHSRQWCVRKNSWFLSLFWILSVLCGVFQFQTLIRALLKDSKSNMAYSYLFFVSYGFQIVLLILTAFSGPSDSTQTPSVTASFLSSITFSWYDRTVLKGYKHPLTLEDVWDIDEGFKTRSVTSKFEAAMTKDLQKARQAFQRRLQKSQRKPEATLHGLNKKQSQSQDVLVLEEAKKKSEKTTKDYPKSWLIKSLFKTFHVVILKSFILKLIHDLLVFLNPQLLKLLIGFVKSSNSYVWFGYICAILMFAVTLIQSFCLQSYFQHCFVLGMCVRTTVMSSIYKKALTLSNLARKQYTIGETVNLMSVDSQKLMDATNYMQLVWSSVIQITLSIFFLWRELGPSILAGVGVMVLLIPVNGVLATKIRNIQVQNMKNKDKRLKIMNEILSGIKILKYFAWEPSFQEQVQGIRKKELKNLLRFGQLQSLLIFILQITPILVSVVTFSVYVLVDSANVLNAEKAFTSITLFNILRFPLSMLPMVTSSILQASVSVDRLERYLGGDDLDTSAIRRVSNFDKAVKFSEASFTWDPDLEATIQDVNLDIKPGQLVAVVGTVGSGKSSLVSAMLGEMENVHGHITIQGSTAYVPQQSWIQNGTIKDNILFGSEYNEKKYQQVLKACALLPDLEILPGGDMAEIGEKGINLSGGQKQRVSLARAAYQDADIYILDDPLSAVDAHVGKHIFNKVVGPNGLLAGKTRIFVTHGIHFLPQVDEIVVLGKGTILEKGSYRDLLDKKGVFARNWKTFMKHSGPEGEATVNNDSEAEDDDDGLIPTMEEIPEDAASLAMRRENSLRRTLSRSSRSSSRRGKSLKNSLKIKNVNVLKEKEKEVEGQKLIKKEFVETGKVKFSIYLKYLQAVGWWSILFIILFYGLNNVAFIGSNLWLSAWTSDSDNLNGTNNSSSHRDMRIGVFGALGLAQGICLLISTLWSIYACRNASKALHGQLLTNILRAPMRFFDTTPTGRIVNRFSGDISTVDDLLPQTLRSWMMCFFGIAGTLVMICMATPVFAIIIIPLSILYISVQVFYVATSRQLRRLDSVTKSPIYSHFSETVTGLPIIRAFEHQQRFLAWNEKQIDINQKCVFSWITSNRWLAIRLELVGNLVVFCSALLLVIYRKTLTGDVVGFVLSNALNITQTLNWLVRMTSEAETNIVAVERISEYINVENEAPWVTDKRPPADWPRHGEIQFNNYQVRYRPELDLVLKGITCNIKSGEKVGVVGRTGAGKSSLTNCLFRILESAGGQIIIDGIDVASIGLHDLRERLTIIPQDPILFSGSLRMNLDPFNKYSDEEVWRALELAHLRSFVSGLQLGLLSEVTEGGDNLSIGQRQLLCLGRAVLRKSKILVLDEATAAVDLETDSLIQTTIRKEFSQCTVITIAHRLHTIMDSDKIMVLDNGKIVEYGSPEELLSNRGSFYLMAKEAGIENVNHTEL

| Structure (SMILES) | Activity [1] | Activity [2] | Activity [3] | Activity [4] |
| --- | --- | --- | --- | --- |
| O=C1OC(c2ccc(OS(=O)(=O)O)cc2)(c2ccc(OS(=O)(=O)O)cc2)c2c(Br)ccc(Br)c21 [DIBROMOSULFOPHTHALEIN] | inhibitor [+] | inhibitor [+] |  |  |
| CC1(C)[C@@H](O[C@H]2O[C@H](C(=O)O)[C@@H](O)[C@H](O)[C@H]2O[C@@H]2O[C@H](C(=O)O)[C@@H](O)[C@H](O)[C@H]2O)CC[C@]2(C)[C@H]3C(=O)C=C4[C@@H]5C[C@@](C)(C(=O)O)CC[C@]5(C)CC[C@@]4(C)[C@]3(C)CC[C@@H]12 [GLYCYRRHIZIN] |  |  | substrate [+] | substrate [+] |
